Data taken from PubChem BioAssay (NCI).
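Method: 48-hour compound exposure of cells in 96-well plates, five concentrations, linear interpolation of endpoints. At the GI50, growth is halved. TGI: total growth inhibition.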

Columns and labels:
Experiment in all cases: NCI anticancer screen, dose series, 48 h
DMS 114 small cell lung = test system: DMS 114 small cell lung
KM20L2 colon = test system: KM20L2 colon
DLD-1 colon = test system: DLD-1 colon
RXF-631 renal = test system: RXF-631 renal
HOP-18 NSCLC = test system: HOP-18 NSCLC
SNB-78 CNS = test system: SNB-78 CNS
XF 498 CNS = test system: XF 498 CNS
DMS 273 small cell lung = test system: DMS 273 small cell lung
MDA-N = test system: MDA-N

Compound | TGI (DMS 114 small cell lung) [µM] | TGI (KM20L2 colon) [µM] | TGI (DLD-1 colon) [µM] | TGI (RXF-631 renal) [µM] | TGI (HOP-18 NSCLC) [µM] | TGI (SNB-78 CNS) [µM] | TGI (XF 498 CNS) [µM] | TGI (DMS 273 small cell lung) [µM] | TGI (MDA-N) [µM] | also measured
C[N+](C)(C)CC(=O)N/N=C/c1oc(-c2cccc([N+](=O)[O-])c2)c(-c2cccc([N+](=O)[O-])c2)c1[N+](=O)[O-] | > 100 | > 100 | > 100 | > 100 | – | – | – | – | – | –
Cc1nn2c(=O)n(-c3cccc(-n4nnc5c(-c6ccccc6)c(C)nn5c4=O)c3C)nnc2c1-c1ccccc1 | 30.2 | 42.1 | 91.6 | – | > 100 | > 100 | 40.1 | > 100 | – | –
CN=c1ss/c(=N\C(=S)N(C)C)n1C1CCCCC1 | > 31.6 | > 31.6 | > 100 | > 100 | > 31.6 | > 31.6 | > 31.6 | > 31.6 | – | –
CN(C(=O)C12C3C4C1C1C2C3C41C(=O)N(C)C(C)(C)C)C(C)(C)C (stereo unspecified) | > 50 | > 50 | – | > 50 | – | > 50 | > 50 | > 50 | – | –
O=C(Cc1nc2ccc(C(=O)c3ccccc3)cc2[nH]c1=O)C(=O)Nc1ccc(C(F)(F)F)cc1[N+](=O)[O-] | – | > 100 | > 100 | > 100 | > 100 | > 100 | > 100 | > 100 | – | –
COc1ccc(/C=C/c2ccnc3ccccc23)cc1 | – | – | – | – | – | – | – | – | 31.6 | –
CC[C@@]1(OC(=O)C(N)CCC(=O)O)C(=O)OCc2c1cc1n(c2=O)Cc2cc3ccccc3nc2-1 (stereo partly specified) | 4.42 | 5.08 | > 100 | – | – | > 100 | 2.04 | 0.29 | – | –
NC(Cn1ccc(=O)c(O)c1)C(=O)O (stereo unspecified) | – | – | – | – | – | – | – | – | > 100 | –
Cc1ccc(SC2C(C)(C)N(C(C)C)P2(=O)N(C(C)C)C(C)C)cc1 (stereo unspecified) | – | > 100 | – | – | > 100 | > 100 | – | 27.7 | – | –
O=C1C=CC(=O)c2c1cc1ccccc1c2O | – | 40.2 | 3.24 | – | 32.3 | 10.5 | 8.39 | 29.5 | 18.5 | –
S=C(Nc1ccc(Cl)cc1)SC1CCCCC1 | – | – | – | – | – | – | – | – | 47 | –
Cc1ccc2nc3sc(=O)sc3nc2c1 | – | – | – | – | – | – | – | – | 32 | –
O=S(=O)(CC(O)C(Cl)(Cl)Cl)NNc1ccccc1 (stereo unspecified) | – | – | – | – | – | – | – | – | > 100 | –
CCOC(=O)C/C(N)=C(\C#N)C(=O)OCC | > 100 | > 100 | > 100 | > 100 | > 100 | > 100 | > 100 | > 100 | – | –
O=S1c2ccccc2N=C(c2ccc3ccccc3c2)CC1c1ccccc1F (stereo unspecified) | > 100 | > 100 | > 100 | > 100 | > 100 | – | > 100 | > 100 | – | –
O=C(O)c1ccccc1-c1ccccc1C(=O)Nc1ccc2c(c1)Cc1ccccc1-2 | – | – | – | – | – | – | – | – | 77.1 | –
OC1=CN=C(C2CC2)Oc2ccccc21 | > 100 | > 100 | > 100 | – | – | > 100 | – | > 100 | – | –
CC(C)(C)C1CCP(=O)(c2ccccc2)CC1 (stereo unspecified) | > 100 | > 100 | > 100 | – | > 100 | > 100 | > 100 | > 100 | – | –
Cc1cc2oc(=O)c(Cl)c(Cl)c2c(C)c1Cl | – | – | – | – | – | – | – | – | 10.8 | –
CC(N)CN.CC(N)CN.[Cl-].[O]=[Os+2]=[O] (stereo unspecified) | > 100 | > 100 | > 100 | > 100 | > 100 | > 100 | – | > 100 | – | GI50 (DMS 114 small cell lung): 47.6 µM; GI50 (HOP-18 NSCLC): 25.9 µM; GI50 (KM20L2 colon): 89.6 µM; GI50 (SNB-78 CNS): > 100 µM; GI50 (DLD-1 colon): > 100 µM; GI50 (RXF-631 renal): 96.9 µM; GI50 (DMS 273 small cell lung): 43.1 µM

Compound | TGI (DMS 114 small cell lung) [µM] | TGI (KM20L2 colon) [µM] | TGI (DLD-1 colon) [µM] | TGI (RXF-631 renal) [µM] | TGI (HOP-18 NSCLC) [µM] | TGI (SNB-78 CNS) [µM] | TGI (XF 498 CNS) [µM] | TGI (DMS 273 small cell lung) [µM] | TGI (MDA-N) [µM] | also measured
COC(=O)[C@H]1CC(=O)C=C2CCCC21 (stereo partly specified) | > 100 | – | > 100 | > 100 | – | – | > 100 | > 100 | – | –
CC1=C(C(=O)Nc2cccc(C(F)(F)F)c2)C(c2ccccc2F)C(C(=O)Nc2cccc(C(F)(F)F)c2)=C(C)N1 | 14.2 | 18.4 | 20.3 | 23.2 | – | 65.6 | 14.6 | – | – | –
Cc1ccc(C)c(NC(=O)C(=O)CC(=O)c2cccc3ccccc23)c1 | > 100 | > 100 | > 100 | > 100 | > 100 | > 100 | – | > 100 | – | –
CC(=O)C(CN(C)Cc1ccccc1)C(c1ccccc1)c1c(O)c2ccccc2oc1=O (stereo unspecified) | > 100 | > 100 | > 100 | – | – | > 100 | – | > 100 | – | –
COc1ccc2oc(-c3cc4cc(OC)ccc4o3)cc2c1 | – | > 100 | > 100 | > 100 | – | > 100 | > 100 | > 100 | – | –
[CH3][Sn]([CH3])([CH3])[O]C(=O)C(O)c1ccccc1 (stereo unspecified) | 31.2 | 9.42 | > 100 | – | > 100 | > 100 | 20.9 | 14 | 15.9 | GI50 (DMS 114 small cell lung): 5.78 µM; GI50 (HOP-18 NSCLC): > 100 µM; GI50 (KM20L2 colon): 2.98 µM; GI50 (SNB-78 CNS): 42.7 µM; GI50 (XF 498 CNS): 2920 nM; GI50 (DLD-1 colon): 4.93 µM; GI50 (MDA-N): 3620 nM; GI50 (DMS 273 small cell lung): 3.01 µM
O=C(O)CC1C(=O)OC2C3COC(=O)c4cc(O)c(O)c(O)c4-c4c(cc(O)c(O)c4O)C(=O)OC2C(OC(=O)c2cc(O)c(O)c4c2C1C(O)C(=O)O4)C(OC(=O)c1cc(O)c(O)c(O)c1)O3 (stereo unspecified) | – | – | – | – | – | – | – | – | 50.1 | –
O=C(O)/C(=C/c1ccccc1[N+](=O)[O-])c1cccs1 | – | > 100 | > 100 | > 100 | > 100 | > 100 | > 100 | > 100 | – | –
O=C(O)CN(CC(=O)O)c1ccccc1 | – | – | – | – | – | – | – | – | > 100 | –
CC(=O)n1cc(CC(C)O)c(=O)[nH]c1=O (stereo unspecified) | > 100 | > 100 | > 100 | > 100 | > 100 | > 100 | > 100 | > 100 | – | –
CC1(C)C(=O)CCC(=O)C(C)(C)C2=CC=C(O2)C(C)(C)C(=O)CCC(=O)C(C)(C)C2=CC=C1O2 | – | > 100 | – | – | > 100 | > 100 | – | > 100 | – | –
Cc1cn(C2CC(N=[N+]=[N-])C(CO)O2)c(=O)[nH]c1=O (stereo unspecified) | – | – | – | – | – | – | – | – | > 1000 | –
CC(C)(C)c1cc(Oc2ccc(C#N)c(C#N)c2)cc(C(C)(C)C)c1 | > 100 | > 100 | > 100 | > 100 | > 100 | > 100 | > 100 | 27.1 | – | –
COc1cccc(C(C#N)NC23CC4CC(CC(C4)C2)C3)c1 (stereo unspecified) | – | – | – | – | – | – | – | – | > 100 | –
O=C1/C(=C\c2ccc([N+](=O)[O-])cc2)CS(=O)(=O)C/C1=C/c1ccc([N+](=O)[O-])cc1 | – | – | – | – | – | – | – | – | 1.63 | GI50 (MDA-N): 305 nM
COc1cc(-c2ccc(Nc3ccccc3C(=O)O)c(OC)c2)ccc1Nc1ccccc1C(=O)O | > 100 | > 100 | > 72.8 | – | > 100 | > 100 | > 100 | > 100 | 97.5 | –
NC(=O)c1ccccc1NC(=O)C(=O)Nc1n[nH]c(N)n1 | – | > 100 | > 100 | – | > 100 | > 100 | > 100 | > 100 | – | –
O=C(NCCSSCCNC(=O)/C(Cc1ccc(O)c(Br)c1)=N/O)/C(Cc1ccc(O)c(Br)c1)=N/O | – | – | – | – | – | – | – | – | 6.99 | –
CC[C@@]1(O)C(=O)OCc2c1cc1n(c2=O)Cc2cc3c(Cl)c4c(cc3nc2-1)OCO4 | – | – | – | – | – | – | – | – | > 100 | –
